Results taken from US11230556B2 (Merck Sharp & Dohme Corp., priority 2016, dated 2022).

Molecular target: T1, human M4 muscarinic acetylcholine receptor (Homo sapiens, UniProt P08173)
T1 construct: expressed in transfected cells; host or cells: CHO-K1
T1 sequence (P08173 1-479): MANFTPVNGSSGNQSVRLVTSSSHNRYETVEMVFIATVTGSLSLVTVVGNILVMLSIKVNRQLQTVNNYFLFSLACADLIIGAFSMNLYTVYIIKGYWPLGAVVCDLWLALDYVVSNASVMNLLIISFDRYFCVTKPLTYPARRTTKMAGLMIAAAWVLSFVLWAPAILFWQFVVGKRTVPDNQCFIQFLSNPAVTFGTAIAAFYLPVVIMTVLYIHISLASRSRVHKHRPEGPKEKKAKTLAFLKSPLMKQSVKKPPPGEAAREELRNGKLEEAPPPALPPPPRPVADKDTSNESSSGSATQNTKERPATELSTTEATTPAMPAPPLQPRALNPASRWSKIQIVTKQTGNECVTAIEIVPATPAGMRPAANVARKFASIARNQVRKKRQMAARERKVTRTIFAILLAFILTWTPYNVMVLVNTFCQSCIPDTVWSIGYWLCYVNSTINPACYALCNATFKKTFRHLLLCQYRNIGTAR
Assay: human FLIPR-based M4 PAM assay (CHO-K1 cells with human M4 receptor and Gαqi5, calcium dye fluorescence, acetylcholine at 20% of maximum response)
Type: cell-based
Settings: inflection point (IP) of 4 parameter logistic dose response curve, human M4 receptor + Gαqi5, FLIPR Tetra
Experimental: In a typical experiment the M4 muscarinic acetylcholine receptor modulating activity of the compounds of the present invention was determined in accordance with the following experimental method. CHO-K1 cells stably transfected with human M4 receptor and chimeric G-protein Gαqi5 (Coward P, et al., Analytical Biochemistry, 270:242-248 (1999)) are thawed from liquid N2 storage, resuspended in growth medium, plated in black, clear bottom 384 well plates, and incubated 16-20 hours at 37° C., 5% CO2. On the day of assay, growth medium is removed, the cells are washed 2 times with wash buffer, and cells are incubated in dye loading buffer at 37° C., 5% CO2 for ˜1 hour. Following dye loading the cell plates are placed in a FLIPR Tetra instrument and while monitoring dye fluorescence (excitation […]), 10 uL of test substance at increasing concentrations is added, and fluorescence values are recorded for 4 min. Next, 10 uL of acetylcholine is added (final concentration calculated so as to achieve 20% of the maximum acetycholine response), and the fluorescence reading is continued for 3.5 min. In some cases, a third addition of acetylcholine (final concentration calculated to achieve 70% of the maximal acetylcholine response) is performed. The resulting dose response curves are fit to a 4 parameter logistic equation and the final result is determined as the inflection point (IP) of the curve
CHO-K1 cells stably transfected with human M4 receptor and chimeric G-protein Gαqi5 are thawed from liquid N2 storage, resuspended in growth medium, plated in black, clear bottom 384 well plates, and incubated 16-20 hours at 37° C., 5% CO2.
On the day of assay, growth medium is removed, the cells are washed 2 times with wash buffer, and cells are incubated in dye loading buffer at 37° C., 5% CO2 for ˜1 h. Following dye loading the cell plates are placed in a FLIPR Tetra instrument and while monitoring dye fluorescence ([…]), 10 uL of test substance at increasing concentrations is added, and fluorescence values are recorded for 4 min. Next, 10 uL of acetylcholine is added (final concentration calculated so as to achieve 20% of the maximum acetycholine response), and the fluorescence reading is continued for 3.5 min. In some cases, a third addition of acetylcholine (final concentration calculated to achieve 70% of the maximal acetylcholine response) is performed.

| Structure (SMILES) | EC50 [nM] |
| --- | --- |
| COc1ccc(OC2CCN(c3nc4c(cc3C)C(=O)OC4)CC2)cn1 [Example 21, 2-(4-((6-Methoxypyridin-3-yl)oxy)piperidin-1-yl)-3-methylfuro[3,4-b]pyridin-5(7H)-one] | 22 |
| COc1ccc(OC2CCN(c3nc4c(cc3C)CN(C(C)=O)C4)CC2)cn1 [Example 40, 1-(2-(4-((6-methoxypyridin-3-yl)oxy)piperidin-1-yl)-3-methyl-5,7-dihydro-6H-pyrrolo[3,4-b]pyridin-6-yl)ethan-1-one] | 162 |
| Cc1cc2c(nc1N1CCC(Oc3ccc4c(c3)COC4)CC1)C1COCCN1C2=O (single isomer, unassigned) [Example 81A] | 29 |
| COc1ccc(OC2CCN(c3nc4c(cc3C)CN(C(=O)C(C)(C)C)C4)CC2)cn1 [Example 45, 1-(2-(4-((6-methoxypyridin-3-yl)oxy)piperidin-1-yl)-3-methyl-5,7-dihydro-6H-pyrrolo[3,4-b]pyridin-6-yl)-2,2-dimethylpropan-1-one] | 235 |
| COc1ccc(OC2CCN(c3nc4c(cc3C)C(=O)OC4CO)CC2)cn1 (centres unmarked) [Example 33, 7-(Hydroxymethyl)-2-(4-((6-methoxypyridin-3-yl)oxy)piperidin-1-yl)-3-methylfuro[3,4-b]pyridin-5(7H)-one] | 34 |
| Cc1cc2c(nc1N1CCC(Oc3ccccc3)CC1)CNC2 [Example 35, 3-methyl-2-(4-phenoxypiperidin-1-yl)-6,7-dihydro-5H-pyrrolo[3,4-b]pyridine] | 76 |
| CCOC(=O)N1Cc2cc(C)c(N3CCC(Oc4ccc(OC)nc4)CC3)nc2C1 [Example 43, ethyl 2-(4-((6-methoxypyridin-3-yl)oxy)piperidin-1-yl)-3-methyl-5,7-dihydro-6H-pyrrolo[3,4-b]pyridine-6-carboxylate] | 157 |
| Cc1cc2c(nc1N1CCC(Oc3cccc(C#N)c3)CC1)COC2=O [Example 32, 3-((1-(3-methyl-5-oxo-5,7-dihydrofuro[3,4-b]pyridin-2-yl)piperidin-4-yl)oxy)benzonitrile] | 14 |
| COc1ccc(OC2CCN(c3nc4c(cc3C)CN(C(=O)CCO)C4)CC2)cn1 [Example 39, 3-Hydroxy-1-(2-(4-((6-methoxypyridin-3-yl)oxy)piperidin-1-yl)-3-methyl-5,7-dihydro-6H-pyrrolo[3,4-b]pyridin-6-yl)propan-1-one] | 77 |
| Cc1cn2c(=O)[nH]nc2nc1N1CC[C@@H](Oc2ccc3c(cnn3C)c2)[C@@H](F)C1 [Example 5, 7-((3S,4R)-3-fluoro-4-((1-methyl-1H-indazol-5-yl)oxy)piperidin-1-yl)-6-methyl-[1,2,4]triazolo[4,3-a]pyrimidin-3(2H)-one] | 62 |
| COC(=O)N1Cc2cc(C)c(N3CCC(Oc4ccc(OC)nc4)CC3)nc2C1 [Example 61, methyl 2-(4-((6-methoxypyridin-3-yl)oxy)piperidin-1-yl)-3-methyl-5,7-dihydro-6H-pyrrolo[3,4-b]pyridine-6-carboxylate] | 156 |
| COc1ccc(OC2CCN(c3nc4c(cc3C)C(=O)C(C)(C)C4)CC2)cn1 [Example 73, 2-(4-((6-Methoxypyridin-3-yl)oxy)piperidin-1-yl)-3,6,6-trimethyl-6,7-dihydro-5H-cyclopenta[b]pyridin-5-one] | 292 |
| COc1ccc(OC2CCN(c3nc4c(cc3C)CN(C(=O)[C@H](C)O)C4)CC2)cn1 [Example 51, (S)-2-hydroxy-1-(2-(4-((6-methoxypyridin-3-yl)oxy)piperidin-1-yl)-3-methyl-5,7-dihydro-6H-pyrrolo[3,4-b]pyridin-6-yl)propan-1-one] | 109 |
| COCCC(=O)N1Cc2cc(C)c(N3CCC(Oc4ccc(OC)nc4)CC3)nc2C1 [Example 56, 3-methoxy-1-(2-(4-((6-methoxypyridin-3-yl)oxy)piperidin-1-yl)-3-methyl-5,7-dihydro-6H-pyrrolo[3,4-b]pyridin-6-yl)propan-1-one] | 221 |

Continued, values first:

| EC50 [nM] | Structure (SMILES) |
| --- | --- |
| 153 | COc1ccc(OC2CCN(c3nc4c(cc3C)CN(C(=O)C3CC3)C4)CC2)cn1 [Example 41, cyclopropyl(2-(4-((6-methoxypyridin-3-yl)oxy)piperidin-1-yl)-3-methyl-5,7-dihydro-6H-pyrrolo[3,4-b]pyridin-6-yl)methanone] |
| 3080 | COc1ccc(OC2CCN(c3nc4c(cc3C)C(O)CC4)CC2)cn1 (single isomer, unassigned) [Example 71A] |
| 81 | Cc1cn2c(=O)n(C)nc2nc1N1CC[C@@H](Oc2ccc3c(cnn3C)c2)[C@@H](F)C1 [Example 10, 7-((3S,4R)-3-fluoro-4-((1-methyl-1H-indazol-5-yl)oxy)piperidin-1-yl)-2,6-dimethyl-[1,2,4]triazolo[4,3-a]pyrimidin-3(2H)-one] |
| 119 | COc1ccc(OC2CCN(c3nc4c(cc3C)C(=O)C(C)C4)CC2)cn1 (centres unmarked) [Example 74, 2-(4-((6-Methoxypyridin-3-yl)oxy)piperidin-1-yl)-3,6-dimethyl-6,7-dihydro-5H-cyclopenta[b]pyridin-5-one] |
| 3090 | COc1ccc(OC2CCN(c3nc4nnc(C(F)(F)F)n4cc3C)CC2)cn1 [Example 80, 7-(4-((6-Methoxypyridin-3-yl)oxy)piperidin-1-yl)-6-methyl-3-(trifluoromethyl)-[1,2,4]triazolo[4,3-a]pyrimidine] |
| 125 | COc1ccc(OC2CCN(c3nc4c(cc3C)CN(S(C)(=O)=O)C4)CC2)cn1 [Example 59, 2-(4-((6-methoxypyridin-3-yl)oxy)piperidin-1-yl)-3-methyl-6-(methylsulfonyl)-6,7-dihydro-5H-pyrrolo[3,4-b]pyridine] |
| 87 | COc1ccc(OC2CCN(c3nc4nn(C)c(=O)n4cc3C)CC2)cn1 [Example 11, 7-(4-((6-methoxypyridin-3-yl)oxy)piperidin-1-yl)-2,6-dimethyl-[1,2,4]triazolo[4,3-a]pyrimidin-3(2H)-one] |
| 55 | COc1ccc(OC2CCN(c3nc4n[nH]c(=O)n4cc3C)CC2)cn1 [Example 4] |
| 113 | Cc1cc2c(nc1N1CCC(Oc3ccccc3)CC1)CN(C(=O)C1CC1)C2 [Example 47, cyclopropyl(3-methyl-2-(4-phenoxypiperidin-1-yl)-5,7-dihydro-6H-pyrrolo[3,4-b]pyridin-6-yl)methanone] |
| 378 | COc1ccc(OC2CCN(c3nc4c(cc3C)CN(C(=O)C3CC3(F)F)C4)CC2)cn1 (centres unmarked) [Example 57, (2,2-difluorocyclopropyl)(2-(4-((6-methoxypyridin-3-yl)oxy)piperidin-1-yl)-3-methyl-5,7-dihydro-6H-pyrrolo[3,4-b]pyridin-6-yl)methanone] |
| 718 | Cc1cn2c(=O)n(C)nc2nc1N1CCC(OCC2CCCC2)CC1 [Example 12, 7-(4-(cyclopentylmethoxy)piperidin-1-yl)-2,6-dimethyl-[1,2,4]triazolo[4,3-a]pyrimidin-3(2H)-one] |
| 397 | COc1ccc(OC2CCN(c3nc4c(cnn4C)cc3C)CC2)cn1 [Example 38, 6-(4-((6-methoxypyridin-3-yl)oxy)piperidin-1-yl)-1,5-dimethyl-1H-pyrazolo[3,4-b]pyridine] |
| 133 | COc1ccc(OC2CCN(c3nc4c(cc3C)CN(CCO)C4)CC2)cn1 [Example 37, 2-(2-(4-((6-methoxypyridin-3-yl)oxy)piperidin-1-yl)-3-methyl-5,7-dihydro-6H-pyrrolo[3,4-b]pyridin-6-yl)ethan-1-ol] |
| 47 | Cc1cn2c(=O)n(CCO)nc2nc1N1CCC(Oc2ccc3c(c2)COC3)CC1 [Example 13, 7-(4-((1,3-Dihydro-2-benzofuran-5-yl)oxy)piperidin-1-yl)-2-(2-hydroxyethyl)-6-methyl-[1,2,4]triazolo[4,3-a]pyrimidin-3(2H)-one] |
| 20 | Cc1cn2c(=O)[nH]nc2nc1N1CCC(Oc2ccc3c(c2)COC3)CC1 [Example 2, 7-(4-((1,3-Dihydro-2-benzofuran-5-yl)oxy)piperidin-1-yl)-6-methyl-[1,2,4]triazolo[4,3-a]pyrimidin-3(2H)-one] |
